Assay results as given in US9889099B2, “Method and composition for enhancing milk production” (LAND O'LAKES, INC., priority 1999, dated 2018).
Marks after values point to notes of the source that are not given here.

System: lactating cows
Test: Example 2: 3x3 Latin square feeding of lactating cows, control ration plus about 50 or 100 g sorbitol per day
Assay type: in vivo, Holstein cows
Conditions: for Milk Protein / Lactose / Total Solids / Dry Matter Intake / Milk Production: last 14 of 28 days
From the text: In this example, fifteen Holstein cows (nine multiparous and six primiparous) averaging about sixty-five days in milk each, and thus in early lactation, were arranged in a 3×3 Latin square design, also known as the switch back design, that was replicated five times. Each cow was randomly allotted to the control ration treatment, to the first test ration treatment, or to the second test ration treatment. In the 3×3 Latin square design, each cow is cycled through each treatment, namely, the control ration treatment, the first test ration treatment, and the second test ration treatment. This permits each cow to act as a control for standardizing the testing differences observed between each treatment for each cow. Sufficient time between feeding treatments (between the control ration treatment, the first ration test treatment, and the second test ration treatment) was allowed to permit normalization of each cow before being switched to a different treatment. The cows were blocked by parity milk production, based upon the level of milk production by individual cows, after being in milk for forty-five days. After being blocked by parity milk production, the cows were randomly allotted to the control ration feeding, the first test ration feeding, or the second test ration feeding. The components of the control ration used in this example are shown in Table 5: The control ration was placed in the feeding troughs of the cattle once daily in the morning. When the first test ration was to be provided to the test cattle, sorbitol was top dressed and lightly mixed into the control ration in the feeding trough of each cow being supplied with the first test ration dosage of about 50 grams of sorbitol per cow per day, about one hour after the control ration was placed in the feeding trough. When the second test ration was to be provided to the test cattle, sorbitol was top dressed and lightly mixed into the control ration in the feeding trough of each cow being supplied with the second test ration dosage of about 100 grams of sorbitol per cow per day, about one hour after the control ration was placed in the feeding trough. Then, the control ration, the first test ration, and the second test ration were lightly mixed in front of the cows six times per day to encourage additional feed ingestion by the cattle. Leftover rations from the previous days feeding were collected and weighed from each feeding trough prior to feeding the test cattle the next day. The cows received a sufficient amount of the control ration to ensure that at least about ten weight percent, based upon the amount of control ration provided at the beginning of each day, remained per day for each test cow. The amount of sorbitol that was top dressed in the control ration to form the first test ration was adjusted upward to account for the excess of control ration provided to ensure that the cows ingested the first test ration dosage of about 50 grams of sorbitol per cow per day. Likewise, the amount of sorbitol that was top dressed in the control ration to form the second test ration was adjusted upward to account for the excess of control ration provided to ensure that the cows ingested the second test ration dosage of about 100 grams of sorbitol per cow per day. Feed refusals were measured daily, and water was supplied ad libitum. Each test cow received routine care and management consistent with appropriate recommendations in the Guide for the Care and Use of Agricultural Animals in Agricultural Research and Teaching (1st edition, March 1988). Each cow was milked three times daily and the weight of produced milk was recorded at each milking. The milk was sampled once per day (⅓ of the sample volume from each milking) and was analyzed for protein, fat, lactose, and total solids, in accordance with the property determination and characterization techniques presented above. […]

OC[C@@H](O)[C@@H](O)[C@H](O)[C@@H](O)CO [sorbitol]
Milk Protein (about 50 g sorbitol/day/cow, Block 1, control 2.23, P >0.10): 2.22 pounds/day/cow
Lactose (about 50 g sorbitol/day/cow, Block 1, control 3.99, P >0.10): 4.10 pounds/day/cow
Total Solids (about 50 g sorbitol/day/cow, Block 1, control 9.51, P >0.10): 9.77 pounds/day/cow
Dry Matter Intake (about 50 g sorbitol/day/cow, Block 1, control 45.0, P >0.10): 44.2 pounds/day/cow
Milk Protein (about 50 g sorbitol/day/cow, Block 2, control 2.13, P >0.10): 2.18 pounds/day/cow
Lactose (about 50 g sorbitol/day/cow, Block 2, control 3.72, P 0.07): 3.89^b pounds/day/cow
Total Solids (about 50 g sorbitol/day/cow, Block 2, control 8.95, P >0.10): 9.48 pounds/day/cow
Dry Matter Intake (about 50 g sorbitol/day/cow, Block 2, control 42.9, P 0.04): 45.3^b pounds/day/cow
Milk Production (about 50 g sorbitol/day/cow, Block 2, control 75.3, P 0.10): 78.0^b pounds/day/cow
Milk Protein (about 50 g sorbitol/day/cow, Block 3, control 2.62, P >0.10): 2.89 pounds/day/cow
Lactose (about 50 g sorbitol/day/cow, Block 3, control 4.32, P >0.10): 4.84 pounds/day/cow
Total Solids (about 50 g sorbitol/day/cow, Block 3, control 10.70, P >0.10): 11.53 pounds/day/cow
Dry Matter Intake (about 50 g sorbitol/day/cow, Block 3, control 54.4, P 0.10): 60.7^b pounds/day/cow
Milk Production (about 50 g sorbitol/day/cow, Block 3, control 89.0, P 0.28): 98.8 pounds/day/cow
Milk Protein (about 50 g sorbitol/day/cow, Block 4, control 2.83, P 0.08): 3.18^b pounds/day/cow
Lactose (about 50 g sorbitol/day/cow, Block 4, control 4.56, P 0.06): 4.88^b pounds/day/cow
Total Solids (about 50 g sorbitol/day/cow, Block 4, control 11.46, P 0.09): 12.35^b pounds/day/cow
Dry Matter Intake (about 50 g sorbitol/day/cow, Block 4, control 61.0, P >0.10): 62.6 pounds/day/cow
Milk Production (about 50 g sorbitol/day/cow, Block 4, control 97.6, P 0.07): 102.9^b pounds/day/cow
Milk Protein (about 50 g sorbitol/day/cow, Block 5, control 3.35, P >0.10): 3.39 pounds/day/cow
Lactose (about 50 g sorbitol/day/cow, Block 5, control 5.70, P 0.05): 5.86^b pounds/day/cow
Total Solids (about 50 g sorbitol/day/cow, Block 5, control 13.46, P >0.10): 13.83 pounds/day/cow
Dry Matter Intake (about 50 g sorbitol/day/cow, Block 5, control 65.1, P >0.10): 66.6 pounds/day/cow
Milk Production (about 50 g sorbitol/day/cow, Block 5, control 119.1, P 0.10): 122.4^b pounds/day/cow
Milk Protein (about 50 g sorbitol/day/cow, all cows, control 2.63, P >0.10): 2.77 pounds/day/cow
Lactose (about 50 g sorbitol/day/cow, all cows, control 4.46, P 0.04): 4.71^b pounds/day/cow
Total Solids (about 50 g sorbitol/day/cow, all cows, control 10.82, P 0.07): 11.39^b pounds/day/cow
Dry Matter Intake (about 50 g sorbitol/day/cow, all cows, control 53.7, P 0.05): 55.9^b pounds/day/cow
Milk Production (about 50 g sorbitol/day/cow, all cows, control 92.9, P 0.05): 97.5^b pounds/day/cow
Milk Protein (about 50 g sorbitol/day/cow, multiparous cows only, control 2.93, P 0.08): 3.15^b pounds/day/cow
Lactose (about 50 g sorbitol/day/cow, multiparous cows only, control 4.86, P 0.07): 5.19^b pounds/day/cow
Total Solids (about 50 g sorbitol/day/cow, multiparous cows only, control 11.87, P >0.10): 12.57 pounds/day/cow
Dry Matter Intake (about 50 g sorbitol/day/cow, multiparous cows only, control 60.2, P 0.09): 63.3^b pounds/day/cow
Milk Production (about 50 g sorbitol/day/cow, multiparous cows only, control 101.9, P 0.07): 108.0^b pounds/day/cow
Milk Protein (about 50 g sorbitol/day/cow, primiparous cows only, control 2.18, P >0.10): 2.20 pounds/day/cow
Lactose (about 50 g sorbitol/day/cow, primiparous cows only, control 3.85, P >0.10): 3.99 pounds/day/cow
Total Solids (about 50 g sorbitol/day/cow, primiparous cows only, control 9.23, P >0.10): 9.63 pounds/day/cow
Dry Matter Intake (about 50 g sorbitol/day/cow, primiparous cows only, control 44.0, P >0.10): 44.7 pounds/day/cow
Milk Production (about 50 g sorbitol/day/cow, primiparous cows only, control 79.5, P >0.10): 81.8 pounds/day/cow
Milk Protein (about 100 g sorbitol/day/cow, Block 1, control 2.23, P >0.10): 2.19 pounds/day/cow
Lactose (about 100 g sorbitol/day/cow, Block 1, control 3.99, P >0.10): 4.07 pounds/day/cow
Total Solids (about 100 g sorbitol/day/cow, Block 1, control 9.51, P >0.10): 9.94 pounds/day/cow
Dry Matter Intake (about 100 g sorbitol/day/cow, Block 1, control 45.0, P >0.10): 44.4 pounds/day/cow
Milk Production (about 100 g sorbitol/day/cow, Block 1, control 83.7, P >0.10): 85.2 pounds/day/cow
Milk Protein (about 100 g sorbitol/day/cow, Block 2, control 2.13, P >0.10): 2.12 pounds/day/cow
Lactose (about 100 g sorbitol/day/cow, Block 2, control 3.72, P 0.07): 3.82^ab pounds/day/cow
Total Solids (about 100 g sorbitol/day/cow, Block 2, control 8.95, P >0.10): 9.29 pounds/day/cow
Dry Matter Intake (about 100 g sorbitol/day/cow, Block 2, control 42.9, P 0.04): 42.6^ab pounds/day/cow
Milk Production (about 100 g sorbitol/day/cow, Block 2, control 75.3, P 0.10): 77.1^ab pounds/day/cow
Milk Protein (about 100 g sorbitol/day/cow, Block 3, control 2.62, P >0.10): 2.85 pounds/day/cow
Lactose (about 100 g sorbitol/day/cow, Block 3, control 4.32, P >0.10): 4.86 pounds/day/cow
Total Solids (about 100 g sorbitol/day/cow, Block 3, control 10.70, P >0.10): 11.62 pounds/day/cow
Dry Matter Intake (about 100 g sorbitol/day/cow, Block 3, control 54.4, P 0.10): 60.1^ab pounds/day/cow
Milk Production (about 100 g sorbitol/day/cow, Block 3, control 89.0, P 0.28): 99.0 pounds/day/cow
Milk Protein (about 100 g sorbitol/day/cow, Block 4, control 2.83, P 0.08): 3.01^ab pounds/day/cow
Lactose (about 100 g sorbitol/day/cow, Block 4, control 4.56, P 0.06): 4.57^ab pounds/day/cow
Total Solids (about 100 g sorbitol/day/cow, Block 4, control 11.46, P 0.09): 11.01^ab pounds/day/cow
Dry Matter Intake (about 100 g sorbitol/day/cow, Block 4, control 61.0, P >0.10): 61.2 pounds/day/cow
Milk Production (about 100 g sorbitol/day/cow, Block 4, control 97.6, P 0.07): 95.9^ab pounds/day/cow
Milk Protein (about 100 g sorbitol/day/cow, Block 5, control 3.35, P >0.10): 3.36 pounds/day/cow
Lactose (about 100 g sorbitol/day/cow, Block 5, control 5.70, P 0.05): 5.78^ab pounds/day/cow
Total Solids (about 100 g sorbitol/day/cow, Block 5, control 13.46, P >0.10): 13.78 pounds/day/cow
Dry Matter Intake (about 100 g sorbitol/day/cow, Block 5, control 65.1, P >0.10): 65.8 pounds/day/cow
Milk Production (about 100 g sorbitol/day/cow, Block 5, control 119.1, P 0.10): 121.0^ab pounds/day/cow
Milk Protein (about 100 g sorbitol/day/cow, all cows, control 2.63, P >0.10): 2.71 pounds/day/cow
Lactose (about 100 g sorbitol/day/cow, all cows, control 4.46, P 0.04): 4.62^ab pounds/day/cow
Total Solids (about 100 g sorbitol/day/cow, all cows, control 10.82, P 0.07): 11.12^ab pounds/day/cow
Dry Matter Intake (about 100 g sorbitol/day/cow, all cows, control 53.7, P 0.05): 54.8^ab pounds/day/cow
Milk Production (about 100 g sorbitol/day/cow, all cows, control 92.9, P 0.05): 95.6^ab pounds/day/cow
Milk Protein (about 100 g sorbitol/day/cow, multiparous cows only, control 2.93, P 0.08): 3.07^ab pounds/day/cow
Lactose (about 100 g sorbitol/day/cow, multiparous cows only, control 4.86, P 0.07): 5.07^ab pounds/day/cow
Total Solids (about 100 g sorbitol/day/cow, multiparous cows only, control 11.87, P >0.10): 12.13 pounds/day/cow
Dry Matter Intake (about 100 g sorbitol/day/cow, multiparous cows only, control 60.2, P 0.09): 62.3^ab pounds/day/cow
Milk Production (about 100 g sorbitol/day/cow, multiparous cows only, control 101.9, P 0.07): 105.3^ab pounds/day/cow
Milk Protein (about 100 g sorbitol/day/cow, primiparous cows only, control 2.18, P >0.10): 2.16 pounds/day/cow
Lactose (about 100 g sorbitol/day/cow, primiparous cows only, control 3.85, P >0.10): 3.95 pounds/day/cow
Total Solids (about 100 g sorbitol/day/cow, primiparous cows only, control 9.23, P >0.10): 9.62 pounds/day/cow
Dry Matter Intake (about 100 g sorbitol/day/cow, primiparous cows only, control 44.0, P >0.10): 43.5 pounds/day/cow
Milk Production (about 100 g sorbitol/day/cow, primiparous cows only, control 79.5, P >0.10): 81.2 pounds/day/cow
improvement of milk production rate versus cows fed only the control ration (first test ration, about 50 g sorbitol per day, all cows): 4.6 pounds per day per cow
improvement of milk production rate versus cows fed only the control ration (second test ration, about 100 g sorbitol per day, all cows): 2.7 pounds per day per cow
